Patent EP4603105A1, “PHARMACEUTICAL COMPOSITION CONTAINING CYCLIC COMPOUND HAVING SELECTIVE KRAS INHIBITORY EFFECT AGAINST HRAS AND NRAS” (CHUGAI SEIYAKU KABUSHIKI KAISHA, priority 2022, dated 2024)
Where two headings read alike, the source gives them in different places.

Columns and labels:
[1] = target: GDP-bound NRAS wild-type protein (Homo sapiens, UniProt P01111); experiment: Binding to NRAS by surface plasmon resonance (SPR), KD and KD ratio to KRAS; conditions: ratio of KD with respect to GDP-bound NRAS wild-type protein to KD with respect to KRAS
GDP-bound NRAS wild-type protein, sequence (P01111 whole entry): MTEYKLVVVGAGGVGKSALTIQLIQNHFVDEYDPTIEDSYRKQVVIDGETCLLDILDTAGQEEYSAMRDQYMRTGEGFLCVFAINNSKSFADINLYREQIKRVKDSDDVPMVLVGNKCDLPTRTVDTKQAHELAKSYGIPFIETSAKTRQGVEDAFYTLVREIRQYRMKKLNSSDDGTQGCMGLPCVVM
Outline: (§1)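 Each cycle, GDP-bound biotin-Avi RAS was captured (~100–300 RU), compound concentrations were injected low to high for 75 s each at 100 µL/min, then the chip was regenerated. Buffer: HBS pH 7.4, 10 mM MgCl2, 10 µM GDP, 1 mM DTT, 4% DMSO; 30°C. KD from a 1:1 binding model.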

[2] = system: human lung cancer strain NCI-H441; experiment: NCI-H441 cell proliferation inhibitory activity (CellTiter-Glo, 4 days); assay type: cell-based; conditions: read-out: NCl-H441 IC50
Method: A test compound was dispensed into a U-bottom 384-well plate as 40 nL serially diluted dimethyl sulfoxide solutions using a liquid handler Echo (LABCYTE). […] This cell suspension was dispensed in an amount of 40 µL per well into a plate containing the test compound, and cultured at 37°C in a 5% carbon dioxide gas incubator. Four days later, 20 µL of CellTiter-Glo (registered trademark) (Promega) was added to each well and […] was measured. […]

[3] = target: HRAS wild-type protein (Homo sapiens, UniProt P01112); experiment: Binding to HRAS by surface plasmon resonance (SPR), KD and KD ratio to KRAS
HRAS wild-type protein, sequence (P01112 whole entry): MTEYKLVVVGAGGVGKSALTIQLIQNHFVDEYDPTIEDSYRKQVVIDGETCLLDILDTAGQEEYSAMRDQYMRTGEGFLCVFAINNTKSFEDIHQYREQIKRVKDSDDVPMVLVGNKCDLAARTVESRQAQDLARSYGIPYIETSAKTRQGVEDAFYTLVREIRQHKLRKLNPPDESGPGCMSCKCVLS
Outline: as §1

[4] = target: GDP-bound KRAS wild-type protein (Homo sapiens, UniProt P01116); experiment: Binding to KRAS by surface plasmon resonance (SPR), dissociation constant KD; conditions: 1:1 binding model
GDP-bound KRAS wild-type protein, sequence (P01116 1-188 isoform P01116-2): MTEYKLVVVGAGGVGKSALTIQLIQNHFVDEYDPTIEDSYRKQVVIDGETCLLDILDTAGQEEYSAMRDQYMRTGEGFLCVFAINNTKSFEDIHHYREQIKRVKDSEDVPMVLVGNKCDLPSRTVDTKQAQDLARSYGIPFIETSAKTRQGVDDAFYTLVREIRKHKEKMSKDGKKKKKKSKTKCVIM
Outline: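 GDP-loaded biotinylated Avi-tag RAS proteins (E. coli-expressed) captured on a Biotin CAPture chip at ~100–300 RU; single-cycle kinetics at 30°C, 100 µL/min, 75 s injections of rising compound concentrations. HBS pH 7.4 running buffer with 1 mM DTT, 10 mM MgCl2, 10 µM GDP, 4% DMSO. KD from 1:1 binding fit.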

[5] = 50% proliferation inhibitory concentration, four days
[6] = ratio of KD with respect to HRAS wild-type protein to KD with respect to KRAS

Row | Compound | NRAS /KRAS [1] | IC50 [2, 5] | HRAS /KRAS [3, 6] | Kd ([4]; Single Cycle Kinetics) | IC50 ([2]; NCI-H441 cells, 4 days) | HRAS /KRAS ([3]; ratio of KD for HRAS wild-type protein to KD for KRAS) | Kd [4]
1 | CC[C@H](C)[C@@H]1NC(=O)[C@H](CC)N(C)C(=O)C[C@@H](C(=O)N(C)C)N(C)C(=O)[C@H](C2CCCC2)N(C)C(=O)C2(CCC2)NC(=O)[C@@H]2CC(F)(F)CN2C(=O)[C@H](CCc2cc(F)c(C(F)(F)F)c(F)c2)NC(=O)CN(C)C(=O)[C@H](Cc2ccc(C(F)(F)F)cc2)N2CC/C=C\C[C@@H](C2=O)N(C)C(=O)CN(C)C1=O [PP1129] | A (a compound having 10 or more and less than 20 is denoted as A) | 10.2 nM | B (a compound having 3 or more and less than 10 is denoted as B) | 0.056 nM |  |  | 
2 | CC[C@H](C)[C@@H]1NC(=O)[C@H](CC)N(C)C(=O)C[C@@H](C(=O)N(C)C)N(C)C(=O)[C@H](C2CCCC2)N(C)C(=O)C2(CCC2)NC(=O)[C@@H]2C[C@@H](OC)CN2C(=O)[C@H](CCc2cc(F)c(C(F)(F)F)c(F)c2)NC(=O)CN(C)C(=O)[C@H](Cc2ccc(C(F)(F)F)cc2)N2CC/C=C\C[C@@H](C2=O)N(C)C(=O)CN(C)C1=O [PP1130] | A (a compound having 10 or more and less than 20 is denoted as A) | 19.6 nM | B (a compound having 3 or more and less than 10 is denoted as B) | 0.035 nM |  |  | 
3 | CC[C@H](C)[C@@H]1NC(=O)[C@H](CC)N(C)C(=O)C[C@@H](C(=O)N(C)C)N(C)C(=O)[C@H](C2CCCC2)N(C)C(=O)C2(CCC2)NC(=O)[C@@H]2C[C@H](F)CN2C(=O)[C@H](CCc2cc(F)c(C(F)(F)F)c(F)c2)NC(=O)CN(C)C(=O)[C@H](Cc2ccc(C(F)(F)F)cc2)N2CC/C=C\C[C@@H](C2=O)N(C)C(=O)CN(C)C1=O [PP1132] | A (a compound having 10 or more and less than 20 is denoted as A) | 86.8 nM | B (a compound having 3 or more and less than 10 is denoted as B) | 0.066 nM |  |  | 
4 | CC[C@H](C)[C@@H]1NC(=O)[C@H](CC)N(C)C(=O)C[C@@H](C(=O)N(C)C)N(C)C(=O)[C@H](C2CCCC2)N(C)C(=O)C2(CCC2)NC(=O)[C@@H]2C[C@@H](C(F)(F)F)CN2C(=O)[C@H](CCc2cc(F)c(C(F)(F)F)c(F)c2)NC(=O)CN(C)C(=O)[C@H](Cc2ccc(C(F)(F)F)cc2)N2CC/C=C\C[C@@H](C2=O)N(C)C(=O)CN(C)C1=O [PP1133] | A (a compound having 10 or more and less than 20 is denoted as A) | 16.5 nM | A (a compound having 10 or more and less than 20 is denoted as A) | 0.05 nM |  |  | 
5 | CC[C@H](C)[C@@H]1NC(=O)[C@H](CC)N(C)C(=O)C[C@@H](C(=O)N(C)C)N(C)C(=O)[C@H](C2CCCC2)N(C)C(=O)C2(CCC2)NC(=O)[C@@H]2C[C@H](C)CN2C(=O)[C@H](CCc2cc(F)c(C(F)(F)F)c(F)c2)NC(=O)CN(C)C(=O)[C@H](Cc2ccc(C(F)(F)F)cc2)N2CC/C=C\C[C@@H](C2=O)N(C)C(=O)CN(C)C1=O [PP1134] | A (a compound having 10 or more and less than 20 is denoted as A) | 20 nM | B (a compound having 3 or more and less than 10 is denoted as B) | 0.06 nM |  |  | 
6 | CCCCCC[C@H]1C(=O)N[C@@H]([C@@H](C)CC)C(=O)N(C)CC(=O)N(C)[C@H]2C/C=C\CCN(C2=O)[C@@H](Cc2ccc(C(F)(F)F)cc2)C(=O)N(C)CC(=O)N[C@@H](CCc2cc(F)c(C(F)(F)F)c(F)c2)C(=O)N2C[C@H](OCC)C[C@H]2C(=O)NC2(CCC2)C(=O)N(C)[C@@H](C(CC)CC)C(=O)N(C)[C@H](C(=O)N(C)C)CC(=O)N1C [PP1202] |  | 24.1 nM |  | 0.4 nM |  |  | 
7 | CCC(CC)[C@H]1C(=O)N(C)[C@H](C(=O)N(C)C)CC(=O)N(C)[C@@H](COC)C(=O)N[C@@H]([C@@H](C)CC)C(=O)N(C2CC2)CC(=O)N(C)[C@H]2C/C=C\CCN(C2=O)[C@@H](CC2CCCCC2)C(=O)N(C)CC(=O)N[C@@H](CCc2ccc(Cl)c(Cl)c2)C(=O)N2C[C@H](OC(C)C)C[C@H]2C(=O)NC2(CC(C)(C)C2)C(=O)N1C [PP2517] |  |  |  |  | 562 nM | A (a compound having 10 or more and less than 20 is denoted as A) | 9.3 nM
